Results published in EP0987250A1, “INDOLE DICARBOXYLIC ACID DERIVATIVES” (SHIONOGI & CO., LTD., priority 1997, dated 1998).

How the values were obtained:
[1] = Evaluation of solubility in water; format: physicochemical; settings: thermodynamic from solid; Na salt: monosodium salt of 10 and 21, disodium salt (20) of 11; water added dropwise by 10 µl; corrected for mg in 1 ml at 23°C
Experimental: A solution of 10.3 mg (24.3 µmol) of compound (11) in 4.85 ml (48.6 µmol) of a 0.01 M methanolic solution of sodium methylate was filtered through a Millipore filter and then concentrated. The resulting residue was dried under reduced pressure to obtain disodium salt (20).

human sPLA2 = target: T1, human sPLA2 (Homo sapiens, UniProt P14555); assay: In vitro test for sPLA2-inhibitory action by PC/DOC method; format: biochemical; settings: PC/DOC = 1 mM/3 mM; Tris buffer 50 mM, pH 8.0; 40°C for 30 minutes; oleic acid measured by HPLC
T1 sequence (P14555 21-144): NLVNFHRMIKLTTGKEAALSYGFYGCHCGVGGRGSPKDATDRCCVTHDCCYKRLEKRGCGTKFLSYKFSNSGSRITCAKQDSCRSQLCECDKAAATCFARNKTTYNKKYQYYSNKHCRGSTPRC
Experimental: A 50 mM solution of 1-palmitoyl-1-oleoyl-sn-glycero-3-phosphatidylcholine in chloroform (PC) was used as a substrate. A 150 mM solution of sodium deoxycholate in methanol (DOC) was used as a surface-active agent
First, the substrate and the surface-active agent were transferred into an Eppendorf tube and the solvent was evaporated by applying a nitrogen stream. Then, the tube was placed in a desiccator and evacuated with a pump to complete dryness. Thereto was added water in an amount to be used for the assay and the solution was stirred for 1 minute. The final concentrations were adjusted so as to make PC/DOC = 1 mM/3 mM.
As the buffer solution for measurement was prepared a Tris buffer solution (50 mM, pH 8.0) containing 150 mM sodium chloride, calcium chloride (10 mM), and bovine serum albumin (1 mg/ml).
To a test compound solution were added the substrate solution and the buffer solution for measurement prepared as described above and the resulting mixture was stirred to mix. […] HPLC analysis was carried out under the following analysis conditions: Column: Supersphere ^R60 RP-8 (Merck & Co.) Mobile: Phase: Acetonitrile : Distilled water (93:7) Detection: Absorbance at 254 nm
The inhibitory activity of the compound was calculated from the amount of oleic acid thus-measured.

Structure (SMILES) | solubility [1] [mg/mL] | IC50 (human sPLA2) [µM]
CCc1c(C(=O)C(N)=O)c2c(OCC(=O)O)cc(C(=O)O)cc2n1Cc1ccccc1 [Compound 11, 1-Benzyl-6-carboxy-4-carboxymethyloxy-2-ethyl-3-oxamoyl-1H-indole] | 228 | 0.0438
CCc1c(C(=O)C(N)=O)c2c(OCC(=O)O)cccc2n1Cc1ccccc1 [Compound 21, reference compound] | 1.4 | –
CCc1c(C(=O)C(N)=O)c2c(OCC(=O)O)cc(C(=O)OC)cc2n1Cc1ccccc1 [compound 10] | 68 | 0.0017
